Data set [1] can be described thus: AUC in Wistar Han rat at 5 mg/kg, po. The data set is classed as ADME, organism-based. Particulars: in vivo.
Data set [2] is described as follows: Cmax in Wistar Han rat at 5 mg/kg, po. The data set is classed as ADME, organism-based. Particulars: in vivo. More on the design: dose 5 mg/kg, route oral.
Data set [3] is described as follows: Oral bioavailability in Wistar Han rat at 5 mg/kg. Type of data set: ADME, organism-based. The following applies: in vivo.
Data set [4] is described as follows: Half life in Wistar Han rat at 2 mg/kg, iv or 5 mg/kg, po. Type of data set: ADME, organism-based. The following applies: in vivo.
Data set [5] can be described thus: Clearance in Wistar Han rat at 2 mg/kg, iv or 5 mg/kg, po. Type of data set: ADME, organism-based. The following applies: in vivo.
Data set [6] deals with T1, Protein deacetylase HDAC6 (Homo sapiens, UniProt Q9UBN7).
T1 sequence (Q9UBN7 whole entry): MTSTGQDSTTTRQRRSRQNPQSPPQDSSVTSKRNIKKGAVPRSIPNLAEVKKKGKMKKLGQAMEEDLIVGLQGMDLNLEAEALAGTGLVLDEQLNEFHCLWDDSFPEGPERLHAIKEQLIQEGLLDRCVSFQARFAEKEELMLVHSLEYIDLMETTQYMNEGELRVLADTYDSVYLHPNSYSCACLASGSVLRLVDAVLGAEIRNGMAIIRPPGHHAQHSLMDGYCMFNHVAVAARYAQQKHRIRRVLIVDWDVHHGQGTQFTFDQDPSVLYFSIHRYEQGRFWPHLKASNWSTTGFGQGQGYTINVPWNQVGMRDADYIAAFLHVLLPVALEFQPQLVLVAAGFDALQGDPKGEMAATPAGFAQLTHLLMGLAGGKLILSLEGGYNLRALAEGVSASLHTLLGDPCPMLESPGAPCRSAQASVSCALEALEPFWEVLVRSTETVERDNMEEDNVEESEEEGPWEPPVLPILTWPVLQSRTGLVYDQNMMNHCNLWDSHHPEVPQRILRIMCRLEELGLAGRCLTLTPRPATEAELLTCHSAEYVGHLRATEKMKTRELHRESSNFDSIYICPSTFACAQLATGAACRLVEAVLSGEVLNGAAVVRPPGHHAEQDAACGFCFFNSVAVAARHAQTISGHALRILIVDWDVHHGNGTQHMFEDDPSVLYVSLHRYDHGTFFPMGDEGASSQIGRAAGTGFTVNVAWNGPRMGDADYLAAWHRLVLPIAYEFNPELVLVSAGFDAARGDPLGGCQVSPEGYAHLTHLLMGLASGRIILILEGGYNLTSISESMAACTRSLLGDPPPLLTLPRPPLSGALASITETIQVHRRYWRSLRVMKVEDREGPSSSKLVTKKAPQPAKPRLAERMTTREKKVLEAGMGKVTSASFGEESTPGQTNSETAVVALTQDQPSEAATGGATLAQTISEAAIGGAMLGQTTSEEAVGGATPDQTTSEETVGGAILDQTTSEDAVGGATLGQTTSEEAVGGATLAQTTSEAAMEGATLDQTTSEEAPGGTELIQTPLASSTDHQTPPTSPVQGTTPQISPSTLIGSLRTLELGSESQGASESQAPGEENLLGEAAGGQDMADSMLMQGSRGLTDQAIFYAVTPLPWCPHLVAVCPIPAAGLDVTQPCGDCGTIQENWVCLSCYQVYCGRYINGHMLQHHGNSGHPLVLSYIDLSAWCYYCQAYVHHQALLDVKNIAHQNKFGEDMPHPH
The data set is classed as ADME.
Description: Inhibition of HDAC6 (unknown origin)

The test system of data set [7] is Human immunodeficiency virus. In words: microbe, parasite or virus in culture. The data set is classed as functional, organism-based. The following applies: Human immunodeficiency virus 1, 2C4.
Description: Reactivation of HIV latency infected in human 2C4 cells in presence of 0.1 % NHS by luciferase reporter gene assay
Data set [8] deals with Human immunodeficiency virus. Description: microbe, parasite or virus in culture. The data set is classed as functional, organism-based. Particulars: Human immunodeficiency virus 1, 2C4. The source holds these as a separate data set.
The nature of data set [9]: AUC in Wistar Han rat at 10 mg/kg, po. Type of data set: ADME, organism-based. Particulars: in vivo.
Data set [10] can be described thus: Cmax in Wistar Han rat at 10 mg/kg, po. The data set is classed as ADME, organism-based. Particulars: in vivo. Details: dose 10 mg/kg, route oral.
Data set [11] is described as follows: Half life in Wistar Han rat at 2 mg/kg, iv or 10 mg/kg, po. The following applies: in vivo. The data set is classed as ADME, organism-based.
Data set [12] can be described thus: Clearance in Wistar Han rat at 2 mg/kg, iv or 10 mg/kg, po. The following applies: in vivo. Type of data set: ADME, organism-based.
Data set [13] can be described thus: Oral bioavailability in Wistar Han rat at 10 mg/kg. The following applies: in vivo. Type of data set: ADME, organism-based.
Data set [14] is described as follows: AUC in Beagle dog at 2 mg/kg, po. The data set is classed as ADME, organism-based, Canis lupus familiaris. The following applies: in vivo.
The nature of data set [15]: Cmax in Beagle dog at 2 mg/kg, po. The data set is classed as ADME, organism-based, Canis lupus familiaris. More on the design: dose 2 mg/kg, route oral. The following applies: in vivo.
Data set [16] is described as follows: Half life in Beagle dog at 1 mg/kg, iv or 2 mg/kg, po. Type of data set: ADME, organism-based, Canis lupus familiaris. The following applies: in vivo.
The nature of data set [17]: Clearance in Beagle dog at 1 mg/kg, iv or 2 mg/kg, po. Type of data set: ADME, organism-based, Canis lupus familiaris. The following applies: in vivo.
Data set [18] can be described thus: Oral bioavailability in Beagle dog at 2 mg/kg. The following applies: in vivo. The data set is classed as ADME, organism-based, Canis lupus familiaris.
A further data set addresses Histone deacetylase 1 (Homo sapiens, UniProt Q13547).
In the next data set the target is Histone deacetylase 2 (Homo sapiens, UniProt Q92769).
Sequence of Histone deacetylase 2 (Q92769 whole entry): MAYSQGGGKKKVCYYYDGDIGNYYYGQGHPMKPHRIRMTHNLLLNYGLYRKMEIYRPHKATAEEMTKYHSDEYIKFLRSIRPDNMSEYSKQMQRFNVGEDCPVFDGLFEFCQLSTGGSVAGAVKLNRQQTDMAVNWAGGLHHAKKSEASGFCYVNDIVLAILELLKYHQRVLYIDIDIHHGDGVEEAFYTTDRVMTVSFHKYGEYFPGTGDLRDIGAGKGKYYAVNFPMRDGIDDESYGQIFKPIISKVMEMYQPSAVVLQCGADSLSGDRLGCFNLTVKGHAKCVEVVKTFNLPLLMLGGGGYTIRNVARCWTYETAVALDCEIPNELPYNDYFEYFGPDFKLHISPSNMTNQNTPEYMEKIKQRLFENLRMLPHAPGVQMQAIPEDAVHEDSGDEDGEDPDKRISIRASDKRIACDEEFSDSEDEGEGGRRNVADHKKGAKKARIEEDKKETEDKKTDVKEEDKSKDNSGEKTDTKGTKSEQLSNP

The values that follow come from ChEMBL document CHEMBL4622849, “Discovery of ethyl ketone-based HDACs 1, 2, and 3 selective inhibitors for HIV latency reactivation” (Bioorg Med Chem Lett, 2020).

Each structure is given as a SMILES string.

Sequence of Histone deacetylase 1 (Q13547 whole entry): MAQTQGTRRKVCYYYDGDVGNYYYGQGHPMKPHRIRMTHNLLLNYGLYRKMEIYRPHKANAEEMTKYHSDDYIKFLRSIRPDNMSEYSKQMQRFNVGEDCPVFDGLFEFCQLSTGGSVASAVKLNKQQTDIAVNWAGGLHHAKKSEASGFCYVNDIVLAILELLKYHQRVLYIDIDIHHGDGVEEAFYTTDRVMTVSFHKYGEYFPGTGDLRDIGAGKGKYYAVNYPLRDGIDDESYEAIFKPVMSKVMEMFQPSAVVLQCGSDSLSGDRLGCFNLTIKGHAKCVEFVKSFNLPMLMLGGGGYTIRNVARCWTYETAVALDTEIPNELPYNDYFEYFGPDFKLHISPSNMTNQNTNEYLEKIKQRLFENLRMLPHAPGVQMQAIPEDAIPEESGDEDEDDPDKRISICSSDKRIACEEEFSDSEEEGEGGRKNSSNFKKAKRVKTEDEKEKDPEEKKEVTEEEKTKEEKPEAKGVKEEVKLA
Description for Histone deacetylase 1: Inhibition of HDAC1 (unknown origin)
Description for Histone deacetylase 2: Inhibition of HDAC2 (unknown origin)

In [1], `CCC(=O)CCCCC[C@H](NC(=O)[C@H]1CC12CCN(CC)CC2)c1ncc(-c2cc3ccccc3nc2OC)[nH]1` had an AUC of 1130 nM·h. For the same compound, the highest concentration (Cmax) in data set [2] was 0.26 µM. The same compound showed a bioavailability in data set [3] of 5.8%. For the same compound, the half-life in data set [4] is 3 h. In addition, in data set [5], the clearance came to 0.432 L/h/kg.

Compound `CCC(=O)CCCCC[C@H](NC(=O)[C@H]1CC12CCN(C)CC2)c1ncc(-c2cc3ccccc3nc2OC)[nH]1` displayed an IC50 in data set [6] of 0.157 µM. Also, the EC50 in [7] is 0.026 µM; in [8], 0.083 µM. The AUC in data set [9] was found to be 2100 nM·h; in [14], 1800 nM·h. For the same compound, the Cmax in data set [10] turned out to be 0.63 µM; in data set [15], 0.69 µM. The half-life in data set [11] was 6.6 h; in data set [16] it was 7.2 h. For the same compound, the clearance is 1.32 L/h/kg in [12] and 0.51 L/h/kg in data set [17]. Moreover, the bioavailability in data set [13] came to 13%; in data set [18], 22.4%.

For `CCC(=O)CCCCC[C@H](NC(=O)[C@H]1CC12CCN(C)CC2)c1ncc(-c2cc3ccccc3nc2OC)o1`, the IC50 at Histone deacetylase 1 came to 0.0015 µM; at Histone deacetylase 2 it was 0.0047 µM. For the same compound, the EC50 in data set [7] turned out to be 0.194 µM; in data set [8] it was 0.31 µM. In [9], this compound came in with an AUC of 6770 nM·h. In [10], this compound came in with a Cmax of 0.7 µM. In data set [11], this compound showed a half-life of 3.2 h. This compound also yielded a clearance in [12] of 0.66 L/h/kg. Besides, the bioavailability in data set [13] was determined as 20.6%.
